# Key:
# Type in all cases: functional
# [1] = test system: Aspergillus niger; experiment: Antifungal activity against Aspergillus niger MTCC 872 by disc diffusion method
# [2] = test system: Aspergillus fumigatus; experiment: Antifungal activity against Aspergillus fumigatus MTCC 343 by disk diffusion method
# [3] = test system: Candida albicans; experiment: Antifungal activity against Candida albicans ATCC 24433 by disk diffusion method
# [4] = test system: Pseudomonas aeruginosa; experiment: Antibacterial activity against Pseudomonas aeruginosa ATCC 25615 by disc diffusion method
# [5] = test system: Escherichia coli; experiment: Antibacterial activity against Escherichia coli MTCC 739 by disc diffusion method
# [6] = test system: Bacillus subtilis; experiment: Antibacterial activity against Bacillus subtilis ATCC 6633 by disk diffusion method
# [7] = test system: Staphylococcus aureus; experiment: Antibacterial activity against Staphylococcus aureus ATCC 9144 by disk diffusion method
# [8] = test system: Aspergillus niger; experiment: Antifungal activity against Aspergillus niger MTCC 872 by two-fold serial dilution method
# [9] = test system: Aspergillus fumigatus; experiment: Antifungal activity against Aspergillus fumigatus MTCC 343 by two-fold serial dilution method
# [10] = test system: Candida albicans; experiment: Antifungal activity against Candida albicans ATCC 24433 by two-fold serial dilution method
# [11] = test system: Pseudomonas aeruginosa; experiment: Antibacterial activity against Pseudomonas aeruginosa ATCC 25615 by two-fold serial dilution method
# [12] = test system: Escherichia coli; experiment: Antibacterial activity against Escherichia coli MTCC 739 by two-fold serial dilution method
# [13] = test system: Bacillus subtilis; experiment: Antibacterial activity against Bacillus subtilis ATCC 6633 by two-fold serial dilution method
# [14] = test system: Staphylococcus aureus; experiment: Antibacterial activity against Staphylococcus aureus ATCC 9144 by two-fold serial dilution method
Compound,diameter of the inhibition zone (DIZ) [1],diameter of the inhibition zone (DIZ) [2],diameter of the inhibition zone (DIZ) [3],diameter of the inhibition zone (DIZ) [4],diameter of the inhibition zone (DIZ) [5],diameter of the inhibition zone (DIZ) [6],diameter of the inhibition zone (DIZ) [7],MIC [8],MIC [9],MIC [10],MIC [11],MIC [12],MIC [13],MIC [14],inhibition zone (IZ) [1],inhibition zone (IZ) [4],inhibition zone (IZ) [5],inhibition zone (IZ) [6],inhibition zone (IZ) [7]
Nc1ccc(C2=N/C(=N/N=C(/C[n+]3c(-c4ccc(Cl)cc4)cc(C(=O)O)c4ccccc43)c3ccccc3)SC2)cc1.[I-],6 mm,9 mm,7 mm,8 mm,7 mm,7 mm,34 mm,> 100 µg/mL,> 100 µg/mL,> 100 µg/mL,> 100 µg/mL,> 100 µg/mL,> 100 µg/mL,3.12 µg/mL,,,,,
Cc1ccc(-c2nc3ccccc3c3c2c(-c2ccccc2)c(-c2ccccc2)n2c(=O)[nH]nc32)cc1,6 mm,9 mm,14 mm,9 mm,6 mm,18 mm,11 mm,> 100 µg/mL,> 100 µg/mL,50 µg/mL,> 100 µg/mL,> 100 µg/mL,50 µg/mL,50 µg/mL,,,,,
GENTAMICIN,,,,,,,,,,,,25 µg/mL,,6.25 µg/mL,18 mm,23 mm,20 mm,22 mm,22 mm
O=c1[nH]nc2c3c(c(-c4ccccc4)nc4ccccc43)c(-c3ccccc3)c(-c3ccccc3)n12,6 mm,12 mm,6 mm,12 mm,21 mm,8 mm,8 mm,> 100 µg/mL,25 µg/mL,> 100 µg/mL,50 µg/mL,25 µg/mL,> 100 µg/mL,> 100 µg/mL,,,,,
O=C(O)c1cc(-c2ccc(Cl)cc2)[n+](C/C(=N/N=C2/N=C(c3ccccc3)CS2)c2ccccc2)c2ccccc12.[I-],6 mm,6 mm,19 mm,6 mm,6 mm,6 mm,15 mm,> 100 µg/mL,> 100 µg/mL,12.5 µg/mL,> 100 µg/mL,> 100 µg/mL,> 100 µg/mL,25 µg/mL,,,,,
Nc1ccc(C2=N/C(=N/N=C(/C[n+]3c(-c4ccccc4)cc(C(=O)O)c4ccccc43)c3ccccc3)SC2)cc1.[I-],7 mm,6 mm,36 mm,9 mm,8 mm,9 mm,24 mm,> 100 µg/mL,> 100 µg/mL,3.12 µg/mL,> 100 µg/mL,> 100 µg/mL,> 100 µg/mL,6.25 µg/mL,,,,,
Cc1ccc(-c2nc3ccccc3c3c2c(-c2ccccc2)c(-c2ccccc2)n2c(=S)[nH]nc32)cc1,7 mm,6 mm,6 mm,6 mm,6 mm,19 mm,6 mm,> 100 µg/mL,> 100 µg/mL,> 100 µg/mL,> 100 µg/mL,> 100 µg/mL,25 µg/mL,> 100 µg/mL,,,,,
S=c1[nH]nc2c3c(c(-c4ccccc4)nc4ccccc43)c(-c3ccccc3)c(-c3ccccc3)n12,6 mm,7 mm,8 mm,8 mm,18 mm,21 mm,8 mm,> 100 µg/mL,> 100 µg/mL,> 100 µg/mL,> 100 µg/mL,50 µg/mL,12.5 µg/mL,> 100 µg/mL,,,,,
Cc1ccc(-c2cc(C(=O)O)c3ccccc3[n+]2C/C(=N/N=C2/N=C(c3ccccc3)CS2)c2ccccc2)cc1.[I-],7 mm,8 mm,17 mm,8 mm,11 mm,9 mm,14 mm,> 100 µg/mL,> 100 µg/mL,25 µg/mL,> 100 µg/mL,> 100 µg/mL,> 100 µg/mL,25 µg/mL,,,,,
O=C(O)c1cc(-c2ccccc2)[n+](C/C(=N/N=C2/N=C(c3ccccc3)CS2)c2ccccc2)c2ccccc12.[I-],14 mm,12 mm,10 mm,9 mm,9 mm,10 mm,18 mm,12.5 µg/mL,25 µg/mL,> 50 µg/mL,> 100 µg/mL,> 100 µg/mL,> 100 µg/mL,25 µg/mL,,,,,
O=c1[nH]nc2c3c(c(-c4ccc(Cl)cc4)nc4ccccc43)c(-c3ccccc3)c(-c3ccccc3)n12,8 mm,6 mm,24 mm,6 mm,6 mm,11 mm,9 mm,> 100 µg/mL,> 100 µg/mL,12.5 µg/mL,> 100 µg/mL,> 100 µg/mL,> 100 µg/mL,> 100 µg/mL,,,,,
OC(Cn1cncn1)(Cn1cncn1)c1ccc(F)cc1F [FLUCONAZOLE],,,21 mm,,,,,,,6.25 µg/mL,,,,,,,,,
Cc1ccc(-c2cc(C(=O)O)c3ccccc3[n+]2C/C(=N/N=C2/N=C(c3ccc(N)cc3)CS2)c2ccccc2)cc1.[I-],8 mm,10 mm,40 mm,6 mm,6 mm,6 mm,40 mm,> 100 µg/mL,> 50 µg/mL,3.12 µg/mL,> 100 µg/mL,> 100 µg/mL,> 100 µg/mL,3.12 µg/mL,,,,,
S=c1[nH]nc2c3c(c(-c4ccc(Cl)cc4)nc4ccccc43)c(-c3ccccc3)c(-c3ccccc3)n12,6 mm,6 mm,18 mm,13 mm,7 mm,8 mm,20 mm,> 100 µg/mL,> 100 µg/mL,25 µg/mL,50 µg/mL,> 100 µg/mL,> 100 µg/mL,12.5 µg/mL,,,,,

# Reference: ChEMBL document CHEMBL3045434, “Synthesis, characterization, and biological evaluation of novel thiazole and pyrazole derivatives of quinoline-4-carboxylic acid as potential antimicrobial agents” (2013)
